According to the RepoRT retention time repository:

experiment: HILIC, Waters ACQUITY UPLC BEH Amide, 100 × 2.1 mm, 1.7 µm; A: water + 0.125% formic acid + 10 mM ammonium formate; B: 5% water + 95% acetonitrile + 0.125% formic acid + 10 mM ammonium formate; gradient (min/%B) 0/100 2/100 7.7/70 9.5/40 10.25/30 12.75/100 17/100; conditions: stereoisomer not certain

Q: Which LC retention time does the source give for `CC(C)CCCC(C)C1CCC2C3CC=C4CC(OC(=O)NCCN(C)C)CCC4(C)C3CCC12C` (stereo not drawn) [3-beta-Cholest-5-en-3-yl [2-(dimethylamino)ethyl]carbamate] here?
A: Its LC retention time is 2.34 min.

Q: With `O=c1c(-c2ccc(O)cc2)coc2cc(O)cc(O)c12` [4,5,7-Trihydroxyisoflavone] as the molecule, how does the LC retention time read?
A: The LC retention time was 1.27 min.

Q: With `CC(=O)NCCCC(=O)O` [4-Acetamidobutyric acid] as the molecule, how does the LC retention time read?
A: The LC retention time was 2.26 min.

Q: Which LC retention time does the source give for `CC(=O)CCCC(=O)O` [4-Acetylbutyric acid] here?
A: The LC retention time was 1.24 min.

Q: With `Nc1ccc(C(=O)O)cc1` [4-Aminobenzoic acid] as the molecule, how does the LC retention time read?
A: The LC retention time was 7.49 min.

Q: Which LC retention time does the source give for `NCC1CCC(C(=O)O)CC1` (stereo not drawn) [4-Aminomethylcyclohexanecarboxylic acid] here?
A: Its LC retention time is 6.6 min.

Q: With `Nc1ccc(O)cc1` [4-Aminophenol] as the molecule, how does the LC retention time read?
A: The LC retention time was 1.34 min.

Q: With `NC(N)=NCCCC(=O)O` [4-Guanidinobutyric acid] as the molecule, how does the LC retention time read?
A: Its LC retention time is 7.72 min.

Q: With `CCCCCCc1ccc(O)cc1O` [4-Hexylresorcinol] as the molecule, how does the LC retention time read?
A: The LC retention time was 1.63 min.

Q: For `CC(=O)CC(C)(C)O` [4-Hydroxy-4-methyl-2-pentanone], which LC retention time is on record?
A: The LC retention time was 4.88 min.

Q: Which LC retention time does the source give for `Cc1cc(O)cc(=O)o1` [4-Hydroxy-6-methyl-2-pyrone] here?
A: The LC retention time was 1.47 min.

Q: For `O=Cc1ccc(O)cc1` [4-Hydroxybenzaldehyde], which LC retention time is on record?
A: The LC retention time was 1.18 min.

Q: With `O=C(O)CNC(=O)c1ccc(O)cc1` [4-Hydroxyhippuric acid] as the molecule, how does the LC retention time read?
A: Its LC retention time is 5.86 min.

Q: For `N#CC(O)c1ccc(O)cc1` (stereo not drawn) [4-Hydroxymandelonitrile], which LC retention time is on record?
A: The LC retention time was 2.63 min.

Q: Which LC retention time does the source give for `CCCCCC(O)C=CC=O` (stereo not drawn) [4-Hydroxynonenal] here?
A: The LC retention time was 1.07 min.

Q: For `O=c1cc[nH]c2ccccc12` [4-Hydroxyquinoline], which LC retention time is on record?
A: Its LC retention time is 1.69 min.

Q: For `Cc1ncsc1CCO` [4-Methyl-5-thiazoleethanol], which LC retention time is on record?
A: The LC retention time was 1.21 min.

Q: With `Cc1cc(=O)oc2cc(O)ccc12` [4-Methylumbelliferone] as the molecule, how does the LC retention time read?
A: Its LC retention time is 1.22 min.

Q: With `CC(=O)Oc1ccc2c(C)cc(=O)oc2c1` [4-Methylumbelliferyl acetate] as the molecule, how does the LC retention time read?
A: The LC retention time was 1.06 min.

Q: For `O=[N+]([O-])c1cc[n+]([O-])c2ccccc12` [4-Nitroquinoline-N-oxide], which LC retention time is on record?
A: The LC retention time was 1.14 min.

Q: For `Cc1ncc(CO)c(C(=O)O)c1O` [4-Pyridoxic acid], which LC retention time is on record?
A: Its LC retention time is 2.66 min.

Q: With `O=C(O)c1ccnc2ccccc12` [4-Quinolinecarboxylic acid] as the molecule, how does the LC retention time read?
A: Its LC retention time is 4.58 min.

Q: With `O=c1[nH]c(=S)ccn1C1OC(CO)C(O)C1O` (stereo not drawn) [4-Thiouridine] as the molecule, how does the LC retention time read?
A: The LC retention time was 2.27 min.

Q: Which LC retention time does the source give for `C[N+](C)(C)CCCC(=O)O` [4-Trimethylammoniobutanoic acid] here?
A: The LC retention time was 7.66 min.

Q: For `CSCC1OC(n2cnc3c(N)ncnc32)C(O)C1O` (stereo not drawn) [5'-Methylthioadenosine], which LC retention time is on record?
A: Its LC retention time is 2.49 min.

Q: With `COCC1OC(n2cc(C)c(=O)[nH]c2=O)CC1O` (stereo not drawn) [5'-O-Methylthymidine] as the molecule, how does the LC retention time read?
A: Its LC retention time is 1.46 min.

Q: Which LC retention time does the source give for `CC1CNC(=O)NC1=O` (stereo not drawn) [5,6-Dihydro-5-methyluracil] here?
A: Its LC retention time is 1.57 min.

Q: For `O=C1CCNC(=O)N1` [5,6-Dihydrouracil], which LC retention time is on record?
A: The LC retention time was 1.77 min.

Q: Which LC retention time does the source give for `Cc1cc2nc[nH]c2cc1C` [5,6-Dimethylbenzimidazole] here?
A: Its LC retention time is 1.82 min.

Q: For `NC(=O)c1[nH]cnc1N` [5-Aminoimidazole-4-carboxamide], which LC retention time is on record?
A: The LC retention time was 4.18 min.

Q: Which LC retention time does the source give for `NCCCCC(=O)O` [5-Aminovaleric acid] here?
A: Its LC retention time is 7.24 min.

Q: With `CC(C)CCCC(C)C1CCC2C3C(O)C=C4CC(O)CCC4(C)C3CCC12C` (stereo not drawn) [5-Cholesten-3-beta-7-alpha-diol] as the molecule, how does the LC retention time read?
A: Its LC retention time is 3.36 min.

Q: For `O=c1ncc(F)c[nH]1` [5-Fluro-2-pyrimidone], which LC retention time is on record?
A: Its LC retention time is 1.77 min.

Q: Which LC retention time does the source give for `Nc1[nH]c(=O)ncc1F` [5-Flurocytosine] here?
A: Its LC retention time is 4.62 min.

Q: With `O=C(O)Cc1c[nH]c2ccc(O)cc12` [5-Hydroxy-3-indoleacetic acid] as the molecule, how does the LC retention time read?
A: Its LC retention time is 1.78 min.

Q: Which LC retention time does the source give for `Nc1nc(=O)n(C2OC(CO)C(O)C2O)cc1CO` (stereo not drawn) [5-Hydroxymethylcytidine] here?
A: Its LC retention time is 7.54 min.

Q: For `Nc1[nH]c(=O)ncc1CO` [5-Hydroxymethylcytosine], which LC retention time is on record?
A: Its LC retention time is 6.9 min.

Q: Which LC retention time does the source give for `NC(Cc1c[nH]c2ccc(O)cc12)C(=O)O` (stereo not drawn) [5-Hydroxytryptophan] here?
A: The LC retention time was 7.48 min.

Q: With `OCCc1c[nH]c2ccc(O)cc12` [5-Hydroxytryptophol] as the molecule, how does the LC retention time read?
A: The LC retention time was 5.93 min.

Q: With `COc1ccc2[nH]cc(CC(=O)O)c2c1` [5-Methoxy-3-indoleacetic acid] as the molecule, how does the LC retention time read?
A: The LC retention time was 1.32 min.

Q: For `COc1c2ccoc2cc2oc(=O)ccc12` [5-Methoxypsoralen], which LC retention time is on record?
A: The LC retention time was 1.07 min.

Q: For `COc1ccc2[nH]cc(CCN)c2c1` [5-Methoxytryptamine], which LC retention time is on record?
A: Its LC retention time is 4.99 min.

Q: With `COc1ccc2[nH]cc(CCO)c2c1` [5-Methoxytryptophol] as the molecule, how does the LC retention time read?
A: Its LC retention time is 1.18 min.

Q: For `COc1cn(C2OC(CO)C(O)C2O)c(=O)[nH]c1=O` (stereo not drawn) [5-Methoxyuridine], which LC retention time is on record?
A: The LC retention time was 4.72 min.

Q: Which LC retention time does the source give for `Cc1cn(C2OC(CO)C(O)C2O)c(=S)[nH]c1=O` (stereo not drawn) [5-Methyl-2-thiouridine] here?
A: The LC retention time was 1.98 min.

Q: With `Cc1cn(C2OC(CO)CC2O)c(=O)[nH]c1=O` (stereo not drawn) [5-Methyl-3-deoxyuridine] as the molecule, how does the LC retention time read?
A: The LC retention time was 2.6 min.

Q: Which LC retention time does the source give for `Cc1cn(C2OC(CO)C(O)C2O)c(=O)nc1N` (stereo not drawn) [5-Methylcytidine] here?
A: The LC retention time was 6.39 min.

Q: For `Cc1cnc(=O)[nH]c1N` [5-Methylcytosine], which LC retention time is on record?
A: Its LC retention time is 6.62 min.
